Test results published in the Kinase Knowledgebase extract (Sharma et al. 2016).

Biological target: CDK2 (UniProt P24941)
Experiment: Enzyme Assay

IC50: 2000 nM
Structure (SMILES): COc1ccc(CNc2nc(NCCCNC(=O)[C@H]3CSC(=O)N3)nc3c2ncn3C(C)C)cc1
